Assays:
PC3 = assay: MTT proliferation assay, PC3; assay type: cell-based; conditions: Prostate, PC3, 120 h of exposure
Experimental: (§1) Proliferation Assays. IC50 values were determined for each cell line. Cells were seeded in 96-well plates at an appropriate cell density as determined from growth kinetics analysis and cultured for 5 days in the absence and presence of the test compounds. Cell proliferation was assessed after the addition of 20 μl of 3-4,5 dimethylthiazol-2,5-diphenyl tetrazolium bromide (MTT, 5 mg/ml in PBS, Sigma) for 5 hrs at 37° C. according to manufacturer's instructions. IC50 values were calculated from semi-log plots of % of control proliferation on the y-axis against log dose on the x-axis.
(§2) Anti-proliferative Activity of Isoflavonoid Derivatives. IC50 values were determined for each cell line after 120 h of exposure.

DU145 = assay: MTT proliferation assay, DU145; assay type: cell-based; conditions: Prostate, DU145, 120 h of exposure
Experimental: as §1, §2

LNCaP = assay: MTT proliferation assay, LNCaP; assay type: cell-based; conditions: Prostate, 120 h of exposure
Experimental: as §1, §2

COLO205 = assay: MTT proliferation assay, COLO205; assay type: cell-based, human; conditions: CRC, COLO205, 120 h of exposure
Experimental: (§3) The human non-small cell lung adenocarcinoma lines NCI-H1299 (CRL-5803), NCI-H460 (HTB-177), NCI-H358 (CRL-5807), NCI-H838 (CRL-5844), the human colorectal adenocarcinoma lines COLO 205 (CCL-222), HCT-15 (CCL-225) and the human gastric cancer cell line NCI-N87 (CRL-5822) were cultured in RPMI 1640 medium containing 2 g/L sodium bicarbonate (Hyclone/Invitrogen) supplemented with 2 mM L-glutamine (Gibco) 1 mM sodium pyruvate (Sigma), 10 mM HEPES (Sigma) and 4500 mg/L glucose (Sigma). The human non-small cell lung adenocarcinoma line NCI-H2126 (CCL-256) was cultured in DMEM:F12(1:1) (Hyclone/Invitrogen) containing 2.5 mM L-glutamine 2.4 g/L sodium bicarbonate supplemented with 5% fetal bovine serum (FBS), an additional 2 mM L-glutamine, 15 mM HEPES, 0.005 mg/ml insulin (Sigma), 0.01 mg/ml transferrin (Sigma), 30 nM sodium selenite (Sigma), 10 nM hydrocortisone (Sigma) and 10 nM beta-estradiol (Sigma). The human colorectal adenocarcinoma line HT-29 (HTB-38) and the human gastric cancer cell lines OE-19 (#96071721) and MKN1 (JCRB0252) were cultured in RPMI 1640 media supplemented with 2 mM L-glutamine.
as §1, §2

A2780 = assay: MTT proliferation assay, A2780; assay type: cell-based; conditions: Ovarian, A2780, 120 h of exposure
Experimental: as §1, §2

R-182 = assay: MTT proliferation assay, R-182; assay type: cell-based; conditions: Ovarian, R-182, 120 h of exposure
From the text: Tissue culture. The multidrug resistant primary epithelial ovarian cancer cell line R-182 TARA was a gift from Dr. Gil Mor (Yale University, New Haven, CT, USA). This cell line was derived by explant from ovarian tumors and cultured as previously described. All other cell lines were purchased from American Type Culture Collection (ATCC, Manassas, VA, USA) with the exception of MKN1, HuH-7, JHH-1, which were purchased from the Japanese Collection of Research Bioresources (JCRB, Osaka, Japan), and OE19 which was purchased from the European Collection of Cell Cultures (ECACC, Salisbury, UK).
as §1, §2

CP70 = assay: MTT proliferation assay, CP70; assay type: cell-based; conditions: Ovarian, CP70, 120 h of exposure
Experimental: as §1, §2

NCI-H460 = assay: MTT proliferation assay, NCI-H460; assay type: cell-based, human; conditions: NSCLC, NCI-H460, 120 h of exposure
Experimental: as §3, §1, §2

A549 = assay: MTT proliferation assay, A549; assay type: cell-based; conditions: NSCLC, A549, 120 h of exposure
Experimental: as §1, §2

CALU3 = assay: MTT proliferation assay, CALU3; assay type: cell-based; conditions: NSCLC, CALU3, 120 h of exposure
Experimental: as §1, §2

HepG2 = assay: MTT proliferation assay, HepG2; assay type: cell-based, human; conditions: Liver, HepG2, 120 h of exposure
Experimental: (§4) The human hepatocellular carcinoma lines HepG2 (HB-8065), SK-HEP-1 (HTB-52) and the normal human lung fibroblast line IMR-90 (CCL-186) were cultured in Minimum Essential Eagles Medium containing 2 mM L-glutamine, 2.2 g/L sodium bicarbonate, supplemented with 1 mM sodium pyruvate and 0.1 mM non-essential amino acids. The human hepatocellular carcinoma line JHH-1 (JCRB1062) was cultured in Williams E Medium (Invitrogen) containing 2.2 g/L sodium bicarbonate, supplemented with 2 mM L-glutamine. The hepatocellular carcinoma line HuH-7 (JCRB0403) was cultured in DMEM, supplemented with 2 mM L-glutamine.
as §1, §2

SK-Hep-1 = assay: MTT proliferation assay, SK-Hep-1; assay type: cell-based, human; conditions: Liver, SK-Hep-1, 120 h of exposure
Experimental: as §4, §1, §2

HuH-7 = assay: MTT proliferation assay, HuH-7; assay type: cell-based, human; conditions: Liver, HuH-7, 120 h of exposure
Experimental: as §4, §1, §2

A2058 = assay: MTT proliferation assay, A2058; assay type: cell-based; conditions: Melanoma, A2058, 120 h of exposure
Experimental: as §1, §2

4405 = assay: MTT proliferation assay, 4405; assay type: cell-based; conditions: Melanoma, 4405, 120 h of exposure
Experimental: as §1, §2

MDA-MB-468 = assay: MTT proliferation assay, MDA-MB-468; assay type: cell-based, human; conditions: Breast, MDA-MB-468, 120 h of exposure
Experimental: The human gastric cancer cell line AGS (CRL-1739) was cultured in Hams F-12K (Kaighans modification) medium containing 2 mM L-glutamine, 2.5 g/L sodium bicarbonate and 2 mM sodium pyruvate. The human breast adenocarcinoma line MDA-MB-468 (HTB-132) was cultured in DMEM:F12 (1:1) medium containing 2.5 mM L-glutamine, 2.4 g/L sodium bicarbonate, supplemented with an additional 2 mM L-glutamine.
as §1, §2

MM200 = assay: MTT proliferation assay, MM200; assay type: cell-based; conditions: Melanoma, MM200, 120 h of exposure
Experimental: as §1, §2

SKBR-3 = assay: MTT proliferation assay, SKBR-3; assay type: cell-based, human; conditions: Breast, SKBR-3, 120 h of exposure
Experimental: The human colorectal adenocarcinoma line HCT-116 (CCL-247) and the human breast adenocarcinoma line SK-BR-3 (HTB-30) were cultured in McCoy's 5a Medium (Invitrogen) containing 1.5 mM L-glutamine and 2.2 g/L sodium bicarbonate. The human colorectal adenocarcinoma line SW620 (CCL-227) was cultured in Leibovitz's L-15 Medium (Invitrogen) containing 2.05 mM L-glutamine.
as §1, §2

[1] = Homo sapiens, MDA-MB-468, 120 h

Row | Structure (SMILES) | IC50 (PC3) [nM] | IC50 (DU145) [nM] | IC50 (LNCaP) [nM] | IC50 (COLO205) [nM] | IC50 (A2780) [nM] | IC50 (R-182) [nM] | IC50 (CP70) [nM] | IC50 (NCI-H460) [nM] | IC50 (A549) [nM] | IC50 (CALU3) [nM] | IC50 (HepG2) [nM] | IC50 (SK-Hep-1) [nM] | IC50 (HuH-7) [nM] | IC50 (A2058) [nM] | IC50 4405 [nM] | IC50 (MDA-MB-468) [nM] | IC50 (MM200) [nM] | IC50 (PC3; Homo sapiens, PC-3, 120 h) [nM] | IC50 (DU145; Homo sapiens, DU-145) [nM] | IC50 (LNCaP; Homo sapiens) [nM] | other results
1 | Cc1cc([C@H]2c3ccc(O)c(C)c3OC[C@H]2c2ccc(O)cc2)ccc1O (relative stereo) [d-6, d-cis-3-(4-hydroxyphenyl)-4-(4-hydroxy-3-methylphenyl)-8-methylchroman-7-ol] | 150 to 500 | 150 to 500 | 150 to 500 | 1600 to 10000 | 150 to 500 | ≤ 150 | 150 to 500 | 150 to 500 | 150 to 500 | 150 to 500 | ≤ 150 | ≤ 150 | 150 to 500 | ≤ 150 | 150 to 500 | ≤ 150 | – | – | – | – | –
2 | Cc1cc([C@H]2c3ccc(O)c(C)c3OC[C@H]2c2ccc(O)cc2)ccc1O (relative stereo) [l-6, l-cis-3-(4-hydroxyphenyl)-4-(4-hydroxy-3-methylphenyl)-8-methylchroman-7-ol] | ≥ 10000 | ≥ 10000 | ≥ 10000 | ≥ 10000 | ≥ 10000 | ≥ 10000 | ≥ 10000 | ≥ 10000 | ≥ 10000 | ≥ 10000 | ≥ 10000 | ≥ 10000 | ≥ 10000 | ≥ 10000 | ≥ 10000 | ≥ 10000 | ≥ 10000 | – | – | – | IC50 (SKBR-3): 1600 to 10000 nM
3 | Cc1c(O)ccc2c1OCC(c1ccc(O)cc1)C2c1ccc(O)cc1 (stereo not shown) [Compound 5, 3-(4-hydroxyphenyl)-4-(4-hydroxyphenyl)-8-methylchroman-7-ol] | – | – | – | – | – | 150 to 500 | – | – | – | – | – | – | – | – | 150 to 500 | – | 150 to 500 | 150 to 500 | 150 to 500 | 150 to 500 | IC50 (COLO205; Homo sapiens, COLO 205): 1600 to 10000 nM; IC50 (A2780; Homo sapiens, A2780, 120 h): 150 to 500 nM; IC50 (CP70; 120 h): ≤ 150 nM; IC50 (NCI-H460; Homo sapiens): 150 to 500 nM; IC50 (A549; Homo sapiens): 150 to 500 nM; IC50 (CALU3; Homo sapiens, Calu-3): ≤ 150 nM; IC50 (HepG2; Homo sapiens): ≤ 150 nM; IC50 (SK-Hep-1; Homo sapiens, SK-HEP1): 150 to 500 nM; IC50 (HuH-7; Homo sapiens): 150 to 500 nM; IC50 (A2058; Homo sapiens, A2058, 120 h): ≤ 150 nM; IC50 (MDA-MB-468; [1]): 150 to 500 nM; IC50 (SKBR-3; Homo sapiens, SK-BR-3, 120 h): ≤ 150 nM
4 | Cc1cc(C2c3ccc(O)c(C)c3OCC2c2ccc(O)cc2)ccc1O (stereo not shown) [Compound 6, 3-(4-hydroxyphenyl)-4-(4-hydroxy-3-methylphenyl)-8-methylchroman-7-ol] | – | – | – | – | – | 150 to 500 | – | – | – | – | – | – | – | – | 150 to 500 | – | 510 to 1500 | 150 to 500 | 150 to 500 | 510 to 1500 | IC50 (COLO205; Homo sapiens, COLO 205): 1600 to 10000 nM; IC50 (A2780; Homo sapiens, A2780, 120 h): 150 to 500 nM; IC50 (CP70; 120 h): 510 to 1500 nM; IC50 (NCI-H460; Homo sapiens): 150 to 500 nM; IC50 (A549; Homo sapiens): 510 to 1500 nM; IC50 (CALU3; Homo sapiens, Calu-3): 150 to 500 nM; IC50 (HepG2; Homo sapiens): 150 to 500 nM; IC50 (SK-Hep-1; Homo sapiens, SK-HEP1): 150 to 500 nM; IC50 (HuH-7; Homo sapiens): 150 to 500 nM; IC50 (A2058; Homo sapiens, A2058, 120 h): 150 to 500 nM; IC50 (MDA-MB-468; [1]): 150 to 500 nM; IC50 (SKBR-3; Homo sapiens, SK-BR-3, 120 h): ≤ 150 nM

From patent US12329739B2, “Isoflavonoid compounds and methods for the treatment of cancer” (Aardvark Therapeutics, Inc., priority 2010, dated 2025)
